Data as given in ChEMBL document CHEMBL6127146, “Exploring the Polypharmacological Potential of PCI-27483: A Selective Inhibitor of Carbonic Anhydrases IX and XII” (ACS Med Chem Lett, 2024).

Biological target: Carbonic anhydrase 3 (Homo sapiens, UniProt P07451)
Sequence (P07451 whole entry): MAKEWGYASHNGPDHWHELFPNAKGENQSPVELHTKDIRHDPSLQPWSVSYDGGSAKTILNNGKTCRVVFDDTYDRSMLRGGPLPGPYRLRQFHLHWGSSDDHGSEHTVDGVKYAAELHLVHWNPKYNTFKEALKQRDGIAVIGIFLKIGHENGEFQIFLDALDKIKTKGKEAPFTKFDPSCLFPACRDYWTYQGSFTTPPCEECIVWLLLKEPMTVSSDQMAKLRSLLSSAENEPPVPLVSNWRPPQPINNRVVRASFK
Description: Inhibition of human CA3 preincubated for 15 mins by phenol red dye based stopped flow CO2 hydration assay

- Ki: > 100 µM
Structure (SMILES): N=C(N)c1ccc2nc(-c3cc(CC(=O)N[C@@H](CC(=O)O)C(=O)O)cc(-c4cc(S(N)(=O)=O)ccc4O)c3O)[nH]c2c1 [PCI-27483]
